For 40 molecules, IC50 results are on record in patent publication US20230293518A1 (Edgewise Therapeutics, Inc., priority 2020, published 2023).

What is called pIC50 is the IC50 on a negative log10 scale, so that one unit is a factor of ten. The low end stands for a high IC50, the high end for a low IC50.

pIC50: −log10 of the molar value.

One assay has as its target skeletal myofibrils (myosin ATPase). Nature of the assay: Skeletal Myofibril ATPase Assay. Conditions: Table 4B. The format is biochemical. An outline of the steps: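 IC50 came from four-parameter logistic fits, bottom constrained ≥0, of (Max−Min) A340 values normalised to 1% DMSO controls. Readings were taken kinetically over 45 min at 1.5-2 min intervals, with ADP from myofibril myosin ATPase coupled through PK-LDH to NADH oxidation. Buffer was pCa (PIPES/CaCl2/EGTA), pH 7.0.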
`O=C(Cn1nc(-c2ccc(OCC(F)(F)F)cc2)ccc1=O)NCc1ccc(O)nc1` [II-20, N-((6-hydroxypyridin-3-yl)methyl)-2-(6-oxo-3-(4-(2,2,2-trifluoroethoxy)phenyl)pyridazin-1(6H)-yl)acetamide] had a negative logarithm of the IC50 (pIC50) below 4.00.
Still for that read-out and setting: to `CCNC(=O)Cn1nc(-c2ccc(OC(F)F)cc2)cc(C)c1=O` [II-21, 2-(3-(4-(difluoromethoxy)phenyl)-5-methyl-6-oxopyridazin-1(6H)-yl)-N-ethylacetamide] belongs below 4.00; to `O=C(Cn1nc(-c2ccc(OCC(F)(F)F)cc2)ccc1=O)N1CC(c2ccccc2)C1` [II-22, 2-(2-oxo-2-(3-phenylazetidin-1-yl)ethyl)-6-(4-(2,2,2-trifluoroethoxy)phenyl)pyridazin-3(2H)-one], above 5.00.
Still for that read-out and setting: to `O=C(Cn1nc(-c2ccc(OCC(F)(F)F)cc2)ccc1=O)N1CCC1c1ccccc1` (stereo not shown) [II-23, 2-(2-oxo-2-(2-phenylazetidin-1-yl)ethyl)-6-(4-(2,2,2-trifluoroethoxy)phenyl)pyridazin-3(2H)-one] belongs above 5.00; to `O=C(Cn1nc(-c2ccc(OCC(F)(F)F)cc2)ccc1=O)NCc1ccc(CO)cc1` [II-24, N-(4-(hydroxymethyl)benzyl)-2-(6-oxo-3-(4-(2,2,2-trifluoroethoxy)phenyl)pyridazin-1(6H)-yl)acetamide], below 4.00.
Same read-out and setting: to `O=C(Cn1nc(-c2ccc(OCC(F)(F)F)cc2)ccc1=O)NCc1ccncc1Cl` [II-25, N-((3-chloropyridin-4-yl)methyl)-2-(6-oxo-3-(4-(2,2,2-trifluoroethoxy)phenyl)pyridazin-1(6H)-yl)acetamide] belongs below 4.00.
With `O=C(Cn1nc(-c2ccc(OCC(F)(F)F)cc2)ccc1=O)NCc1ccc[nH]c1=O` [II-26, N-((2-oxo-1,2-dihydropyridin-3-yl)methyl)-2-(6-oxo-3-(4-(2,2,2-trifluoroethoxy)phenyl)pyridazin-1(6H)-yl)acetamide], the pIC50 was 4.00 to 5.00.

The same assay, now with this note: Table 4C.
For the molecule `CCOc1ccc(-c2ccc(=O)n(CC(=O)NCc3ccccc3Cl)n2)cc1` [IIIa-1, N-(2-chlorobenzyl)-2-(3-(4-ethoxyphenyl)-6-oxopyridazin-1(6H)-yl)acetamide], the pIC50 was above 5.00.
Still for that read-out and setting: to `CC(C)Oc1ccc(-c2ccc(=O)n(CC(=O)NCc3ccccc3Cl)n2)cc1` [IIIa-2, N-(2-chlorobenzyl)-2-(3-(4-isopropoxyphenyl)-6-oxopyridazin-1(6H)-yl)acetamide] belongs above 5.00; to `CCNC(=O)Cn1nc(-c2ccc(OC)cc2)ccc1=O` [IIIa-3, N-ethyl-2-(3-(4-methoxyphenyl)-6-oxopyridazin-1(6H)-yl)acetamide], above 5.00; to `COc1ccc(-c2ccc(=O)n(CC(=O)NCC3CCCCC3)n2)cc1` [IIIa-4, N-(cyclohexylmethyl)-2-(3-(4-methoxyphenyl)-6-oxopyridazin-1(6H)-yl)acetamide], above 5.00.
The same measure, in the same setting: under `COc1ccc(-c2ccc(=O)n(CC(=O)NCCc3ccccc3)n2)cc1` [IIIa-5, 2-(3-(4-methoxyphenyl)-6-oxopyridazin-1(6H)-yl)-N-phenethylacetamide] stands above 5.00; under `CCOc1ccc(-c2ccc(=O)n(CC(=O)NC(C)C)n2)cc1` [IIIa-6, 2-(3-(4-ethoxyphenyl)-6-oxopyridazin-1(6H)-yl)-N-isopropylacetamide], above 5.00; under `COc1ccc(-c2ccc(=O)n(CC(=O)NCc3cc(F)ccc3Cl)n2)cc1` [IIIa-7, N-(2-chloro-5-fluorobenzyl)-2-(3-(4-methoxyphenyl)-6-oxopyridazin-1(6H)-yl)acetamide], above 5.00.
Still for that read-out and setting: to `COc1ccc(-c2ccc(=O)n(CC(=O)NCc3cccc(Cl)c3)n2)cc1` [IIIa-8, N-(3-chlorobenzyl)-2-(3-(4-methoxyphenyl)-6-oxopyridazin-1(6H)-yl)acetamide] belongs above 5.00; to `COc1ccc(-c2ccc(=O)n(CC(=O)NC(C)(C)c3ccccc3)n2)cc1` [IIIa-9, 2-(3-(4-methoxyphenyl)-6-oxopyridazin-1(6H)-yl)-N-(2-phenylpropan-2-yl)acetamide], above 5.00.
Molecule `COc1ccc(-c2ccc(=O)n(CC(=O)NCc3cccc(C)c3)n2)cc1` [IIIa-10, 2-(3-(4-methoxyphenyl)-6-oxopyridazin-1(6H)-yl)-N-(3-methylbenzyl) acetamide] had a pIC50 above 5.00.
Still for that read-out and setting: to `COc1ccc(-c2ccc(=O)n(CC(=O)NCc3ccccc3C(F)(F)F)n2)cc1` [IIIa-11, 2-(3-(4-methoxyphenyl)-6-oxopyridazin-1(6H)-yl)-N-(2-(trifluoromethyl)benzyl)acetamide] belongs above 5.00; to `COc1ccc(-c2ccc(=O)n(CC(=O)NCc3ccc(Cl)cc3Cl)n2)cc1` [IIIa-12, N-(2,4-dichlorobenzyl)-2-(3-(4-methoxyphenyl)-6-oxopyridazin-1(6H)-yl)acetamide], above 5.00.
Same read-out and setting: to `COc1ccc(-c2ccc(=O)n(CC(=O)NCc3ccccc3Cl)n2)c(F)c1` [IIIa-13, N-(2-chlorobenzyl)-2-(3-(2-fluoro-4-methoxyphenyl)-6-oxopyridazin-1(6H)-yl)acetamide] belongs above 5.00; to `COc1ccc(-c2ccc(=O)n(CC(=O)NCc3ccc(C)cc3)n2)cc1` [IIIa-15, 2-(3-(4-methoxyphenyl)-6-oxopyridazin-1(6H)-yl)-N-(4-methylbenzyl) acetamide], above 5.00.
Still for that read-out and setting: to `COc1ccc(-c2ccc(=O)n(CC(=O)NCc3ccccc3C)n2)cc1` [IIIa-16, 2-(3-(4-methoxyphenyl)-6-oxopyridazin-1(6H)-yl)-N-(2-methylbenzyl) acetamide] belongs above 5.00; to `COc1ccc(-c2ccc(=O)n(CC(=O)NCc3ccc(Cl)cc3)n2)cc1` [IIIa-17, N-(4-chlorobenzyl)-2-(3-(4-methoxyphenyl)-6-oxopyridazin-1(6H)-yl)acetamide], above 5.00.
For the molecule `CCc1ccc(-c2ccc(=O)n(CC(=O)NCc3ccccc3Cl)n2)cc1` [IIIa-18, N-(2-chlorobenzyl)-2-(3-(4-ethylphenyl)-6-oxopyridazin-1(6H)-yl)acetamide], the pIC50 was above 5.00.
Turning to `CCNC(=O)Cn1nc(-c2ccc(C3CC3)cc2)ccc1=O` [IIIa-19, 2-(3-(4-cyclopropylphenyl)-6-oxopyridazin-1(6H)-yl)-N-ethylacetamide], the pIC50 is above 5.00.
In turn, `COc1ccc(-c2ccc(=O)n(CC(=O)NC3(c4ccccc4Cl)CC3)n2)cc1` [IIIa-20, N-(1-(2-chlorophenyl)cyclopropyl)-2-(3-(4-methoxyphenyl)-6-oxopyridazin-1(6H)-yl)acetamide] had a pIC50 of 4.00 to 5.00.
The same measure, in the same setting: under `CNC(=O)Cn1nc(-c2ccc(OC)cc2)ccc1=O` [IIIa-21, 2-(3-(4-methoxyphenyl)-6-oxopyridazin-1(6H)-yl)-N-methylacetamide] stands 4.00 to 5.00; under `COc1ccc(-c2ccc(=O)n(CC(=O)NCc3ccccc3Cl)n2)c(C)c1` [IIIa-22, N-(2-chlorobenzyl)-2-(3-(4-methoxy-2-methylphenyl)-6-oxopyridazin-1(6H)-yl)acetamide], 4.00 to 5.00.
Still for that read-out and setting: under `COc1ccc(-c2ccc(=O)n(CC(=O)NCc3ccccc3Cl)n2)cc1C` [IIIa-23, N-(2-chlorobenzyl)-2-(3-(4-methoxy-3-methylphenyl)-6-oxopyridazin-1(6H)-yl)acetamide] stands 4.00 to 5.00; under `COc1ccc(-c2ccc(=O)n(CC(=O)NCc3ccccc3Cl)n2)cc1F` [IIIa-24, N-(2-chlorobenzyl)-2-(3-(3-fluoro-4-methoxyphenyl)-6-oxopyridazin-1(6H)-yl)acetamide], 4.00 to 5.00.
Turning to `COc1ccc(-c2ccc(=O)n(CC(=O)NC(C)c3ccccc3Cl)n2)cc1` (stereo not shown) [IIIa-25, N-(1-(2-chlorophenyl)ethyl)-2-(3-(4-methoxyphenyl)-6-oxopyridazin-1(6H)-yl)acetamide], the negative logarithm of the IC50 (pIC50) is 4.00 to 5.00.
The same measure, in the same setting: to `COc1ccc(-c2ccc(=O)n(CC(=O)NCc3ccon3)n2)cc1` [IIIa-26, N-(isoxazol-3-ylmethyl)-2-(3-(4-methoxyphenyl)-6-oxopyridazin-1(6H)-yl)acetamide] belongs 4.00 to 5.00; to `CCNC(=O)Cn1nc(-c2ccc(OCC3(F)COC3)cc2)ccc1=O` [IIIa-27, N-ethyl-2-(3-(4-((3-fluorooxetan-3-yl)methoxy)phenyl)-6-oxopyridazin-1(6H)-yl)acetamide], 4.00 to 5.00; to `COc1ccc(-c2ccc(=O)n(CC(=O)NCc3cnccn3)n2)cc1` [IIIa-28, 2-(3-(4-methoxyphenyl)-6-oxopyridazin-1(6H)-yl)-N-(pyrazin-2-ylmethyl) acetamide], below 4.00.
The molecule `COc1ccc(-c2ccc(=O)n(CC(=O)NCC3CCOCC3)n2)cc1` [IIIa-29, 2-(3-(4-methoxyphenyl)-6-oxopyridazin-1(6H)-yl)-N-((tetrahydro-2H-pyran-4-yl)methyl) acetamide] showed a pIC50 below 4.00.
On the same count and under the same terms, to `COc1ccc(-c2ccc(=O)n(CC(=O)NCc3ccccn3)n2)cc1` [IIIa-30, 2-(3-(4-methoxyphenyl)-6-oxopyridazin-1(6H)-yl)-N-(pyridin-2-ylmethyl)acetamide] belongs below 4.00; to `COc1ccc(-c2ccc(=O)n(CC(=O)NCc3cnoc3)n2)cc1` [IIIa-31, N-(isoxazol-4-ylmethyl)-2-(3-(4-methoxyphenyl)-6-oxopyridazin-1(6H)-yl)acetamide], below 4.00.
Same read-out and setting: under `COc1ccc(-c2ccc(=O)n(CC(=O)NCc3cnn(C)c3)n2)cc1` [IIIa-32, 2-(3-(4-methoxyphenyl)-6-oxopyridazin-1(6H)-yl)-N-((1-methyl-1H-pyrazol-4-yl)methyl) acetamide] stands below 4.00; under `COc1ccc(-c2ccc(=O)n(CC(=O)NCc3nccn3C)n2)cc1` [IIIa-33, 2-(3-(4-methoxyphenyl)-6-oxopyridazin-1(6H)-yl)-N-((1-methyl-1H-imidazol-2-yl)methyl) acetamide], below 4.00; under `COc1ccc(-c2ccc(=O)n(CC(=O)NCc3ccno3)n2)cc1` [IIIa-34, N-(isoxazol-5-ylmethyl)-2-(3-(4-methoxyphenyl)-6-oxopyridazin-1(6H)-yl)acetamide], below 4.00.
